Assays:
male ICR mice [1] = assay: MK-801-induced hyperactivity in mice; assay type: in vivo; conditions: single oral dose
Protocol: Immediately after injection with either saline or MK-801 (0.3 mg/kg, i.p.), the mice were placed into the test chambers (29 cm × 29 cm × 30 cm) for 60 min of locomotion recording using a tracking and computerized analysis system (TopScan Version 3.00, Clever Sys Inc., Leesburg, VA).

male ICR mice [2] = assay: DOI-induced head twitch in mice
male ICR mice [3] = assay: Novel object recognition in scopolamine hydrobromide-treated mice; assay type: in vivo; conditions: NOR; NH300094 0.01–0.16 mg/kg p.o.; risperidone 0.04, 0.08, 0.16 mg/kg p.o.; rivastigmine 0.3 and 1 mg/kg i.p.
Protocol: The procedure was modified according to Bevins and Besheer ([Bevins and Besheer, 2006]). […] The tests were conducted in a 50 cm × 35 cm × 20 cm chamber and the mice behavior was recording using a Hikvision video recording system (H.265, Hikvision Digtial Technology Co., Ltd.). All mice were allowed to freely explore the chamber environment for 10 min, and there were no objects placed in the chamber during acclimatization period. […] Rivastigmine hydrogen tartrate group (0.1, 0.3 and 1 mg/kg, i.p.) were dosed simultaneously with scopolamine hydrobromide (3 mg/kg, i.p.). Training was conducted 30 min post scopolamine hydrobromide administration by placing a single mouse into a chamber for 10 min with two exactly same objects positioned in the center of chamber. (The distance between the two objects was more than 20 cm). […]
The experimental video was analyzed to record the time of mice exploring the new and old objects, respectively, and the differentiation index (DI) was calculated as follows: DI = new object exploration time/(new object exploration time + old object exploration time), which was used as the main evaluation index of discrimination ability. […] If the total exploration time of the new and old objects was less than 20 s, the total 10 min of video would be analyzed. […] The movement of circling without sniffing or sitting on the object was not recorded as exploration behavior.

5-HT2C receptor = biological target: T1, 5-HT2C receptor (Homo sapiens, UniProt P28335); assay: 5-HT2C receptor functional assay (calcium flow, FLIPR); assay type: cell-based; conditions: HEK293/5-HT2C cells, read-out: 5HT2cR, IC50
T1 sequence (P28335 33-458): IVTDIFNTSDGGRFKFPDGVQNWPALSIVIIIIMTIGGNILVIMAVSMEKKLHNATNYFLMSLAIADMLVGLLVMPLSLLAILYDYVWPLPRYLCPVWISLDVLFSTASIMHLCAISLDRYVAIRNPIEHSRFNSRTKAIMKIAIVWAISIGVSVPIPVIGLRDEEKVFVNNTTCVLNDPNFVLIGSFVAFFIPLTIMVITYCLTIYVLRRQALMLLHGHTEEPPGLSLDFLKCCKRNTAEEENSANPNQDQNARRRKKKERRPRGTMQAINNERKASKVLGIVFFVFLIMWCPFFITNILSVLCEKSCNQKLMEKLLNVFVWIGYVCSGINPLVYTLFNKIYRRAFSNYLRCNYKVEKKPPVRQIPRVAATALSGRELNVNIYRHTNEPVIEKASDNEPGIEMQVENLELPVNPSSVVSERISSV

D3 receptor = D3 receptor (Homo sapiens, UniProt P35462); assay: D3 receptor functional assay (Nano-Glo luciferase assay system); assay type: cell-based; conditions: antagonist activity, CHO-K1/D3 cells, read-out: D3R, IC50
D3 receptor, sequence (P35462 whole entry): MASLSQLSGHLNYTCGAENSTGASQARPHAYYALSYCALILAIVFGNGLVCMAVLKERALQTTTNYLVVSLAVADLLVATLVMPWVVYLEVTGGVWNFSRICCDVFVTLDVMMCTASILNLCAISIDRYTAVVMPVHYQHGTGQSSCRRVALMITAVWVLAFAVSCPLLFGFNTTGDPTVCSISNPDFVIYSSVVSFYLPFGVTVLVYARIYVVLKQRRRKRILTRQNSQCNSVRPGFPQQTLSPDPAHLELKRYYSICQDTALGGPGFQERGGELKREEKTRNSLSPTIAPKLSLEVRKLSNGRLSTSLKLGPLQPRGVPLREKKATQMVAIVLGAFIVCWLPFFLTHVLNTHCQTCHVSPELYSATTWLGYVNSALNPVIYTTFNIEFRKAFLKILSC

5-HT1B receptor = 5-HT1B receptor (Homo sapiens, UniProt P28222); assay: 5-HT1B receptor functional assay (cAMP assay, inverse agonist); assay type: cell-based; conditions: inverse agonist activity, CHO-K1/5-HT1B cells, read-out: 5HT1BR, EC50
5-HT1B receptor, sequence (P28222 whole entry): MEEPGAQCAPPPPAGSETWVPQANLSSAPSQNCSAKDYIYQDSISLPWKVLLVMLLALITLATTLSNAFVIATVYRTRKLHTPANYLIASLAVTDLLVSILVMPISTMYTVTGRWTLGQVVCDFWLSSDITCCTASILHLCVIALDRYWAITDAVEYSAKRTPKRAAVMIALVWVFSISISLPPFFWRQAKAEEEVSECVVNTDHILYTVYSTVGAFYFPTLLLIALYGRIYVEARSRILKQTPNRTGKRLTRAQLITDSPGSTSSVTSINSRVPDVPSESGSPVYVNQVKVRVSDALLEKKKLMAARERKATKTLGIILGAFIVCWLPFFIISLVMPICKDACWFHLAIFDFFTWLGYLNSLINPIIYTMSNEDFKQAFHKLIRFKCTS

male ICR mice [4] = assay: APO-induced climbing in mice
5-HT7 receptor = biological target: T2, 5-HT7 receptor (Homo sapiens, UniProt P34969); assay: 5-HT7 receptor functional assay (Bright-Glo Luciferase assay system); assay type: cell-based; conditions: HEK293/5-HT7 cells, read-out: 5HT7R, IC50
T2 construct: host or cells: HEK293/5-HT7
T2 sequence (P34969 whole entry): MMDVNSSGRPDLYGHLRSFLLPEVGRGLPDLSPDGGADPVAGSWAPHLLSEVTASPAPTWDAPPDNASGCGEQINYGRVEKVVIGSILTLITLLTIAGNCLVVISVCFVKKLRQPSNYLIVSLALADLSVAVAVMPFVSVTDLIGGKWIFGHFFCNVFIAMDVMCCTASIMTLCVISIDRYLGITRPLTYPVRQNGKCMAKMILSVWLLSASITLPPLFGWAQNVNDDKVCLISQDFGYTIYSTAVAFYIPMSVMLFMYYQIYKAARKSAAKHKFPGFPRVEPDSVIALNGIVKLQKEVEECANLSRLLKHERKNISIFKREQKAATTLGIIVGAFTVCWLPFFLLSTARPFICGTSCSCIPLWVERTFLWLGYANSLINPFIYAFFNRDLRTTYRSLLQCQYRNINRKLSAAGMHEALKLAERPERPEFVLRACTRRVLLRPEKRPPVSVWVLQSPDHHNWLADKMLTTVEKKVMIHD

5-HT2A receptor = 5-HT2A receptor (Homo sapiens, UniProt P28223); assay: 5-HT2A receptor functional assay (calcium flow, FLIPR, antagonist); assay type: cell-based
5-HT2A receptor, sequence (P28223 whole entry): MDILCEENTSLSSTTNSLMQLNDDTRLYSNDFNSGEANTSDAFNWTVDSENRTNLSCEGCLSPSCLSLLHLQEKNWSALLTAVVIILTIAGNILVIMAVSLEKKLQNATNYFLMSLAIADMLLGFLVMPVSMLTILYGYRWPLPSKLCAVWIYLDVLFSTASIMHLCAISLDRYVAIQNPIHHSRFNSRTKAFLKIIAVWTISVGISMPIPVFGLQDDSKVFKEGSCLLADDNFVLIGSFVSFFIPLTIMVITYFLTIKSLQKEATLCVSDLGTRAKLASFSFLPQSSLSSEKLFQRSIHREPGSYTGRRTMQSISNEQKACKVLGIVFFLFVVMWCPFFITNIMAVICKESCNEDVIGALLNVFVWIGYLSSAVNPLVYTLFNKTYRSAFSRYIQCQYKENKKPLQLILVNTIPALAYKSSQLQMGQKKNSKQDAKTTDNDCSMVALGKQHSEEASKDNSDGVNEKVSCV

D2L receptor = D2L receptor (Homo sapiens, UniProt P14416); assay: D2L receptor functional assay (cAMP assay, antagonist); assay type: cell-based; conditions: antagonist activity, CHO-K1/D2 cells, read-out: D2LR, IC50
D2L receptor, sequence (P14416 whole entry): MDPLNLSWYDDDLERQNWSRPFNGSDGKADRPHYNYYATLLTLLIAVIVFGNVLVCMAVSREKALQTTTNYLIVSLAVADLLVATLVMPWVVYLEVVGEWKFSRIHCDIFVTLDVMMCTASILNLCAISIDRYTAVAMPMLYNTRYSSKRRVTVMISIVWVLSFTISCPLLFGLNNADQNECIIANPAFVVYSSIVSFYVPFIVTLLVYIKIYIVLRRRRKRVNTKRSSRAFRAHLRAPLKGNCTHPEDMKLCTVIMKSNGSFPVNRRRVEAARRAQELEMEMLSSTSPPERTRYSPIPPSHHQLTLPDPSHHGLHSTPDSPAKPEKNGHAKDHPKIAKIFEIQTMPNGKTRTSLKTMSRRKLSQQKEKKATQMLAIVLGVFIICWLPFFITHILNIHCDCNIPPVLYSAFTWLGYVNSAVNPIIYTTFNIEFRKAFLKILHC

Alpha2A receptor = biological target: T3, Alpha2A receptor (Homo sapiens, UniProt P08913); assay: Alpha2A receptor functional assay (cAMP assay); assay type: cell-based; conditions: HEK293/Alpha2A cells, read-out: Alpha2AR, IC50
T3 construct: expressed in transfected cells; host or cells: HEK293/Alpha2A (constructed by Shanghai shujing Biopharma)
T3 sequence (P08913 1-465): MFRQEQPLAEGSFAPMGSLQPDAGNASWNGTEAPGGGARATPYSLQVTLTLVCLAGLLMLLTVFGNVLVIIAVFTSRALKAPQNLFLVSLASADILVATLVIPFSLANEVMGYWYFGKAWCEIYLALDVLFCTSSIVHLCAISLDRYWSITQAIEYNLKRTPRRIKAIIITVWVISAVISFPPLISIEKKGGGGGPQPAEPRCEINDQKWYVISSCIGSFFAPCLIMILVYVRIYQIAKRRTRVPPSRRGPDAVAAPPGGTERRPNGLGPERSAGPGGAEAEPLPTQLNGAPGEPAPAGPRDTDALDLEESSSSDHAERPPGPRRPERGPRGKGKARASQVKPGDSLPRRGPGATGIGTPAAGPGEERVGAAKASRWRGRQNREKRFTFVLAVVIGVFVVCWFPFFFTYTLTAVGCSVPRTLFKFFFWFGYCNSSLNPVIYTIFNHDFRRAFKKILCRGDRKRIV

male ICR mice [5] = conditions: p.o.
in vivo = conditions: male, ICR, mouse, po
H1 receptor = biological target: T4, H1 receptor (Homo sapiens, UniProt P35367); assay: H1 receptor functional assay (calcium flow, FLIPR); assay type: cell-based; conditions: HEK293/H1 cells, read-out: H1R, IC50
T4 construct: host or cells: HEK293/H1
T4 sequence (P35367 whole entry): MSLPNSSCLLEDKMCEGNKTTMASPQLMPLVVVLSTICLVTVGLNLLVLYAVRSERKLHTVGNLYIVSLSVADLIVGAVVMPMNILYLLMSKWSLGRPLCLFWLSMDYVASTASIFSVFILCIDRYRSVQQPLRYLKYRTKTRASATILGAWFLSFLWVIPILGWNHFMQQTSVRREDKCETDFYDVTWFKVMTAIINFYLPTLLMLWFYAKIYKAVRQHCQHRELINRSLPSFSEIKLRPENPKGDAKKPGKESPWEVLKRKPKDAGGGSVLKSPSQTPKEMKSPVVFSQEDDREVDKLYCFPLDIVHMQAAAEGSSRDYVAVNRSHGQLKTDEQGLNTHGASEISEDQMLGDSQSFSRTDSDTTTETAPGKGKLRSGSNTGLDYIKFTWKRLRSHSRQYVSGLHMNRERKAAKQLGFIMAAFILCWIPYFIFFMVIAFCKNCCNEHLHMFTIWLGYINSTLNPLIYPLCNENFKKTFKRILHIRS

[6] = single oral dose, male ICR mice

In the case of O=C1CCc2cc(OCCCN3CCC(c4noc5cc(F)ccc45)CC3)cc3c2N1CC3 [NH300094, 8-(3-(4-(6-fluorobenzo [d]isoxazol-3-yl)piperidin-1-yl)propoxy)-1,2,5,6-tetrahydro-4H-pyrrolo [3,2,1-ij] quinolin-4-one], the ED50 (male ICR mice [1]; Mus musculus, MK-801 0.3 mg/kg i.p., read-out: ED50, inhibition of MK-801-induced hyperactivity) is reported as roughly 0.07 mg/kg, the “Minimum effective dose (MED), MK-801-induced hyperactivity” value (male ICR mice [1]) is reported as 0.03 mg/kg and the ED50 (male ICR mice [2]; Mus musculus, po, read-out: ED50, inhibition of DOI-induced head twitch, single oral dose, male ICR mice, DOI 1 mg/kg) is reported as roughly 0.007 mg/kg. The “MED, DOI-induced head twitch” value (male ICR mice [2]; [6]) was 0.003 mg/kg, the “effect on differentiation index (DI) of scopolamine hydrobromide-treated mice” value (male ICR mice [3]) was “increased DI index” and the IC50 (5-HT2C receptor) was 3020 nM. For the same molecule, the IC50 (D3 receptor) was 31.5 ± 23.1 nM, the EC50 (5-HT1B receptor) was 28.4 ± 12.5 nM and the ED50 (male ICR mice [4]; Mus musculus, read-out: ED50, inhibition of APO-induced climbing) was roughly 0.29 mg/kg. For the same molecule, the “MED, APO-induced climbing” value (male ICR mice [4]; [6]) was 0.3 mg/kg, the IC50 (5-HT7 receptor) was 5520 nM and the “antagonistic activities ratio of 5-HT2AR and D2R (IC50 ratio)” value (5-HT2A receptor; IC50 5-HT2AR / IC50 D2R) was 0.45. It also gave an IC50 (5-HT2A receptor; antagonist activity, calcium flow FLIPR, CHO-K1/5-HT2A cells, read-out: 5HT2AR, IC50) of 0.47 ± 0.79 nM, an IC50 (D2L receptor) of 1.04 ± 0.59 nM and an IC50 (Alpha2A receptor) of 314 nM. The “minimal dose that induced catalepsy” value (male ICR mice [5]) was 3 mg/kg, the ED50 (in vivo) was 6.73 mg/kg and the IC50 (H1 receptor) was 126 nM.

Source: article PMC10848157, “Assessing NH300094, a novel dopamine and serotonin receptor modulator with cognitive enhancement property for treating schizophrenia” (Frontiers in Pharmacology, 2024)
